Experimental data taken from ChEMBL document CHEMBL3400093, “Synthesis and biological evaluation of novel tyrosyl-DNA phosphodiesterase 1 inhibitors with a benzopentathiepine moiety” (Bioorg Med Chem, 2015).
Activity calls are given as the source filed them. No cut-off for these calls is given here.

Tests used:
[1] = molecular target: Tyrosyl-DNA phosphodiesterase 1 (Homo sapiens, UniProt Q9NUW8); assay: Inhibition of recombinant TDP1 (unknown origin) assessed as increase in fluorescence
MCF7 [2] = assay: Cytotoxicity against human MCF7 cells assessed as reduction In cell number after 72 hrs by MTT assay; format: functional; settings: MCF7, 72 h
MCF7 [3] = assay: Cytotoxicity against human MCF7 cells assessed as condensation of nuclei, shrinkage of the cytoplasm, convolution of outlines, budding and formation of apoptotic bodies at 40 uM after 24 hrs by light microscopy; format: functional, cell-based
MCF7 [4] = assay: Cytotoxicity against human MCF7 cells assessed as condensation of nuclei, shrinkage of the cytoplasm, convolution of outlines, budding and formation of apoptotic bodies at 200 uM after 24 hrs by light microscopy; format: functional, cell-based
HepG2 [5] = assay: Cytotoxicity against human HepG2 cells assessed as condensation of nuclei, shrinkage of the cytoplasm, convolution of outlines, budding and formation of apoptotic bodies at 40 uM after 24 hrs by light microscopy; format: functional, cell-based
HepG2 [6] = assay: Cytotoxicity against human HepG2 cells assessed as condensation of nuclei, shrinkage of the cytoplasm, convolution of outlines, budding and formation of apoptotic bodies at 200 uM after 24 hrs by light microscopy; format: functional, cell-based
MCF7 [7] = assay: Induction of apoptosis in human MCF7 cells assessed as apoptotic DNA fragments at 100 uM after 72 hrs by DNA gel electrophoresis assay; format: functional, cell-based
MCF7 [8] = assay: Induction of apoptosis in human MCF7 cells assessed as P1 population at 100 uM after 24 hrs by annexin V-FITC/propidium iodide staining-based FACS flow cytometric analysis relative to control; format: functional
MCF7 [9] = assay: Induction of apoptosis in human MCF7 cells assessed as P1 population at 200 uM after 24 hrs by annexin V-FITC/propidium iodide staining-based FACS flow cytometric analysis relative to control; format: functional
MCF7 [10] = assay: Induction of apoptosis in human MCF7 cells assessed as P1 population at 100 uM after 48 hrs by annexin V-FITC/propidium iodide staining-based FACS flow cytometric analysis relative to control; format: functional
MCF7 [11] = assay: Induction of apoptosis in human MCF7 cells assessed as P1 population at 200 uM after 48 hrs by annexin V-FITC/propidium iodide staining-based FACS flow cytometric analysis relative to control; format: functional
MCF7 [12] = assay: Induction of apoptosis in human MCF7 cells assessed as P2 population at 100 uM after 48 hrs by annexin V-FITC/propidium iodide staining-based FACS flow cytometric analysis (reference value: 13.5%); format: functional
MCF7 [13] = assay: Induction of apoptosis in human MCF7 cells assessed as P2 population at 200 uM after 48 hrs by annexin V-FITC/propidium iodide staining-based FACS flow cytometric analysis (reference value: 13.5%); format: functional
HepG2 [14] = assay: Cytotoxicity against human HepG2 cells assessed as reduction In cell number after 72 hrs by MTT assay; format: functional; settings: HepG2, 72 h

Sequence of Tyrosyl-DNA phosphodiesterase 1 (Q9NUW8 whole entry): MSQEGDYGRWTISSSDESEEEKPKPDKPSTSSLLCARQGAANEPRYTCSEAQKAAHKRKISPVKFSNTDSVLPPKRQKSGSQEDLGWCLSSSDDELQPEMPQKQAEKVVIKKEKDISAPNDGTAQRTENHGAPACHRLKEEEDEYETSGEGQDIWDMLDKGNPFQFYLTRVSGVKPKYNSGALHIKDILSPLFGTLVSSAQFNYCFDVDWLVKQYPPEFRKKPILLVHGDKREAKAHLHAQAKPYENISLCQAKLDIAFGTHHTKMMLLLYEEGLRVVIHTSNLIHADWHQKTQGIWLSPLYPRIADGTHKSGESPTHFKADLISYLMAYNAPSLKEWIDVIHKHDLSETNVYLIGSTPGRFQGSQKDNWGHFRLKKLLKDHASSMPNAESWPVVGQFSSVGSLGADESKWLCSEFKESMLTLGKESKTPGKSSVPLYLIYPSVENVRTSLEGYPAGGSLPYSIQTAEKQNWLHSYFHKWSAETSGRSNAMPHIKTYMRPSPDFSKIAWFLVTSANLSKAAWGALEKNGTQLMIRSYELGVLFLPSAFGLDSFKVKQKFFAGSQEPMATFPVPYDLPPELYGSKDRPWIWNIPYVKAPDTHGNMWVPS

SMILES	IC50 [1]	CC50 (MCF7 [2])	Activity (MCF7 [7])	Activity (MCF7 [9])	Activity (MCF7 [11])	also measured
O=C(CCN1CCCCC1)Nc1cc(C(F)(F)F)cc2c1SSSSS2	3.66 µM					
O=C(CN1CCCC1)Nc1ccccc1	> 10 µM					
O=C(CN1CCOCC1)Nc1cc(C(F)(F)F)cc2c1SSSSS2	1.62 µM					
O=C(Nc1cc(C(F)(F)F)cc2c1SSSSS2)C(F)(F)F	> 10 µM	21 µM	Active	8.3%	20.1%	inhibition (MCF7 [3]): Active; inhibition (MCF7 [4]): Active; inhibition (HepG2 [5]): Active; inhibition (HepG2 [6]): Active; Activity (MCF7 [8]): 1.2%; Activity (MCF7 [10]): 9.5%; Activity (MCF7 [12]): 23%; Activity (MCF7 [13]): 33.6%
CCCCN(CCCC)CC(=O)Nc1cc(C(F)(F)F)cc2c1SSSSS2	0.22 µM	28.1 µM	Active	1.51%	10.5%	CC50 (HepG2 [14]): > 100 µM
O=C(CCN1CCOCC1)Nc1cc(C(F)(F)F)cc2c1SSSSS2	1.3 µM					
O=C(CCN1CCCC1)Nc1cc(C(F)(F)F)cc2c1SSSSS2	6.03 µM					
O=C(CN1CCCCC1)Nc1ccccc1	> 10 µM					
Nc1cc(C(F)(F)F)cc2c1SSSSS2	> 10 µM	14 µM	Active	0%	0.8%	CC50 (HepG2 [14]): 26.6 µM; Activity (MCF7 [8]): 0%
O=C(CN1CCCC1)Nc1cc(C(F)(F)F)cc2c1SSSSS2	3.7 µM					
O=C(CN1CCCCC1)Nc1cc(C(F)(F)F)cc2c1SSSSS2	1.28 µM	19.3 µM	Active	0%	0.9%	CC50 (HepG2 [14]): 24.4 µM; Activity (MCF7 [8]): 0%
